Literature values in US6759063B2, “Methods and compositions for reducing sympathomimetic-induced side effects” (priority 1999, dated 2004).

Experiments:
[1] = test system: human alpha1-adrenoceptors; settings: up to the highest concentration that could be tested
[2] = test system: cloned human alpha1A- and alpha1B-adrenoceptors; settings: phenylephrine-stimulated; cloned receptors
[3] = separate studies
[4] = 150 mg/day; obese outpatients
[5] = rodents and humans

For CC[C@H](CC[C@@H](C)[C@H]1CC[C@H]2[C@@H]3CC=C4C[C@@H](O)CC[C@]4(C)[C@H]3CC[C@]12C)C(C)C [beta-sitosterol], the “inhibition of radioligand binding to human alpha1-adrenoceptors” value [1] is listed as “without consistent inhibitory effect” and the “inhibition of agonist-induced [3H]inositol phosphate formation” value [2] is listed as “without consistent inhibitory effect”.

For CCN[C@@H](C)Cc1cccc(C(F)(F)F)c1 [dexfenfluramine], the “weight loss in obese patients” value [3] is given as “promote weight loss”.

In the case of CN[C@@H](C)[C@H](O)c1ccccc1 [ephedrine], the “adverse side effects versus placebo group” value [4] is given as “significantly greater adverse side effects” and the “thermogenic and anti-obesity properties” value [5] is given as “potent thermogenic and anti-obesity properties”.

In the case of Cn1c(=O)c2c(ncn2C)n(C)c1=O [caffeine], the “thermogenic and anti-obesity properties” value [5] is listed as “no effect”.
